Assays:
[1] = test system: Western larch somatic embryos; assay: Western larch somatic embryogenesis (Example 10); assay type: cell-based, Western larch (Larix occidentalis Nutt.)
Protocol: In order to test the effect of increased ABA and osmoticum, somatic embryos were first cultured on ½ LM full hormone proliferation medium, then transferred to hormone-free preculture medium with 3% sucrose for one week prior to plating 0.75 mL of a 20% (w/v) suspension culture onto filter paper supports overlaying solidified maturation medium. The somatic embryos were plated on PEG medium of 330 mmol/kg and 16 μM ABA, then transferred to 380 mmol/kg PEG medium, 24 ABA after 1 week, then transferred to 450 mmol/kg PEG medium, 32 μM ABA after the third week. These were then either desiccated at week 5 or were transferred to 540 mmol/kg PEG, 40 μM ABA for up to two more weeks before desiccating.

[2] = test system: white spruce somatic embryos; assay: Effect of water stress and ABA on somatic embryo moisture contents (Example 4); assay type: cell-based
Protocol: Water potentials were measured for liquid media containing various osmotica at a range of concentrations, which were plotted on a curve. Determinations were made using a vapour pressure osmometer (Wescor). Moisture content determinations were done using methods described previously by Attree et al. (U.S. Pat. No. 5,464,769).
Embryos were cultured on medium containing 3% sucrose and ABA, with additional osmoticum adjusted to vary water potentials, as shown in Table 4.
Embryos were cultured for six weeks and moisture contents determined. Determinations for each treatment were made weekly, with three replicates per treatment. 50 embryos per replicate were used. In some instances, particularly for the control with low osmoticum, insufficient embryos were produced. In these cases, the minimum number of embryos used per replicate was thirty. For weeks 0 to 2, the embryos were too small to be used for moisture content determinations, so whole tissue was used instead.

[3] = test system: Douglas fir somatic embryos; assay: Douglas fir somatic embryogenesis (Example 11); assay type: cell-based
Protocol: Douglas fir may be cultured using sucrose at 1-3% (30-90 mM), however, other sugars may be used at the same concentrations. Maintenance cultures usually contain the sugar at about 1%. […] Douglas fir embryogenic tissue was induced from developing seed. Embryos contained in megametophytes were induced and maintained on TX maintenance medium having 1% sucrose. This medium contained 0.2 g/L glutamine and 0.2 g/L casein hydrolysate. Selected embryogenic tissue was subcultured biweekly per petri dish. Medium was solidified with 2.4 g/L PHYTAGEL™. This medium contained 9 μM 2,4-D and 4.5 μM BA. Liquid suspension cultures were maintained in flasks containing 50 mL liquid maintenance medium Liquid cultures were subcultured weekly. For maturation, the embryogenic suspension was first precultured in liquid medium without growth regulators, and subcultured weekly. The water potential of the maintenance cultures and precultures remained below 150 mmol/kg. After one or two weeks of preculture, 1 to 2 g of filtered tissue was resuspended in 10 mL fresh medium and 0.75 mL of the new suspension was pipetted onto the solid maturation medium. Maturation medium contained calcium chloride at 105 mg/L, and ammonium nitrate was included at 400 mg/L. Glutamine was used at 0.8 g/L for the first week then reduced to 0.1 g/L thereafter. Casein hydrolysate was maintained at 0.2 g/L. The sugar was increased to 2-3% and the medium was solidified with Phytagel at 2.8 to 3.4 g/L. ABA was added into the medium after filter sterilization. The maturation medium also contained PEG. The ABA and water potential were raised following the schedule in the following table.
In some instances, the PEG was reduced and the water potential made up to the desired level using lactose at 0% in the first week, 1% in week 2, 4% in weeks 3 and 4, 5% in week 5, and 6% in week 6. Although this allowed a firmer gel to set than otherwise would occur with PEG alone, it may not provide any other benefit over full PEG (see, for example, Table 8), particularly if liquid culture medium is used. […] The embryos were desiccated and stored in a freezer as described for spruce, or germinated directly without desiccation. For germination, embryos were placed on half-strength basal medium containing 0.4 g/L calcium nitrate, 0.2 g/L ammonium nitrate, no hormones and 2% sucrose and 0.6% agar. These were grown in the light.

[4] = test system: Norway spruce somatic embryos; assay: Norway spruce culture with raised ABA and PEG (Example 5); assay type: cell-based
Protocol: Norway spruce was cultured using the same protocol as developed for white spruce. Thus, somatic embryos from full hormone suspension culture were transferred to hormone-free liquid culture medium (half-strength Litvay's medium, 3% sucrose) for one week, then transferred (0.75 mL of 20% suspension) to maturation medium in petri dishes.
The first medium contained PEG adjusted to 290 mmol/kg and 20 μM ABA. After two weeks, the cultures were transferred on their filter paper supports to fresh medium of the same composition, or to medium containing PEG adjusted to 400 mmol/kg and 30 μM ABA. After a further two weeks (i e., the fourth week of culture), the somatic embryos were transferred either to PEG media at a water potential of 400 mmol/kg and 40 μM ABA, or to PEG medium of 540 mmol/kg and 40 μM ABA. Somatic embryos were also plated on medium containing 20 μM ABA and no PEG.

[5] = test system: white spruce somatic embryos; assay: Reducing or increasing ABA with increasing water stress and desiccation, plant growth (Example 9); assay type: cell-based; conditions: for Shoot development / Survival / Total plant length: 8 weeks growth
Protocol: Experiments were conducted to determine the effects of decreasing ABA levels in combination with increasing water stress on development, desiccation tolerance and germination of white spruce. Embryos from preculture (Example 7, treatment 8) were plated onto the transfer schedule outlined below.
Cotyledonary embryos were visible after the second week of culture, and cotyledons were prominent from the fourth week during which time the somatic embryos were in contact with 40 to 20 μM of ABA. […] For germination, the best embryos which were not showing precocious germination were selected. Somatic embryos were either germinated directly or were desiccated then germinated as described above. Controls were prepared using embryos developed using pretreatment 8, in Example 7, followed by culture on solidified medium treatment 6 of Example 4.

[6] = treatment 3: PEG medium 290 mmol/kg with constant ABA 20 μM, six weeks
[7] = ABA 30 to 60 μM and water potential 294 to 814 mmol/kg over 6 weeks

CC1=CC(=O)CC(C)(C)[C@@]1(O)/C=C/C(C)=C\C(=O)O [ABA, abscisic acid]
production of mature embryos ([1]; ABA and a mild water stress of 3% sucrose): rarely produced mature embryos
plantlets after desiccation and germination ([1]; PEG 330 to 450 or 540 mmol/kg with ABA 16 to 32 or 40 μM, desiccated and germinated): viable somatic plantlets with root and developing needles
precocious germination ([1]; PEG 330 to 450 or 540 mmol/kg with ABA 16 to 32 or 40 μM, five to seven weeks of culture): inhibited from germinating precociously
greening of embryos ([2]; treatment 1: ABA 20 to 40 μM, 3% sucrose, 190 mmol/kg, after six weeks): evidence of greening
greening of embryos [2, 6]: slight greening of cotyledons
moisture content of somatic embryos [2, 6]: below 55%
moisture content of somatic embryos ([2]; treatment 4: PEG medium 290 mmol/kg with increasing ABA 20, 30, 40 μM, compared with treatment 3): further slight reductions in moisture content
greening of embryos ([2]; treatment 5: ABA to 40 μM, PEG medium to 400 mmol/kg): No greening
moisture content of somatic embryos ([2]; treatment 5: ABA to 40 μM, PEG medium to 400 mmol/kg after week two, compared with treatment 4): a further reduction in moisture content
greening of embryos ([2]; treatment 6: ABA to 40 μM, PEG medium to 540 mmol/kg): No greening
yield of mature somatic embryos ([2]; treatment 6: PEG water potential raised to 540 mmol/kg with ABA to 40 μM): 300-350 mature somatic embryos per dish
moisture content of somatic embryos ([2]; treatment 6: PEG water potential raised to 540 mmol/kg with ABA to 40 μM, end of six-week culture): ~40%
germination with shoot and needle development, frequency [3, 7]: ~100%
precocious germination [3, 7]: Precocious germination was prevented
survival after transfer to soil in a greenhouse, frequency ([3]; somatic plants produced using the methods of this invention): up to 95%
appearance, precocious germination ([4]; 20 μM ABA, no PEG, after six weeks): green and elongated
appearance, precocious germination ([4]; 290 mmol/kg PEG medium and 20 μM ABA, after six weeks): green and some had dark green tips to their cotyledons
appearance, precocious germination ([4]; completed the 400 mmol/kg PEG, 40 μM ABA treatment, six weeks): yellow with a greenish tinge
appearance, precocious germination ([4]; completed the 540 mmol/kg PEG, 40 μM ABA treatment, six weeks): small and white with no evidence of precocious germination
appearance of developed embryos, precocious germination ([5]; ABA decreasing 40, 20, 10, 0 μM with PEG 290, 400, 540, 540 mmol/kg over 6 weeks): slight swelling and slight greening
Shoot development ([5]; Increasing ABA, desiccated): 93%
Survival ([5]; Increasing ABA, desiccated): 100%
Total plant length ([5]; Increasing ABA, desiccated): 34.5 mm
Shoot development ([5]; Reducing ABA, desiccation): 0%
Survival ([5]; Reducing ABA, desiccation): 80.5%
Total plant length ([5]; Reducing ABA, desiccation): 8.14 mm
Shoot development ([5]; Reducing ABA, no desiccation): 0%
Survival ([5]; Reducing ABA, no desiccation): 100%
Total plant length ([5]; Reducing ABA, no desiccation): 25.8 mm
new needle development ([5]; Reducing ABA, non-desiccated embryos, after 12 weeks of growth): none had shown new needle development

From US6627441B1, “Increasing levels of growth regulator and/or water stress during embryo development” (priority 1998, dated 2003)
